In US9907312B2, “Compositions comprising a biological control agent and an insecticide” (priority 2012, dated 2018):

Assays:
Format in all cases: in vivo
[1] = tested on: Myzus persicae; assay: Myzus persicae spray test (MYZUPE), Chinese cabbage leaf-disks; settings: mortality after 6 d
Protocol: (§1) For all examples the efficiencies of the compositions comprising at least one BCA and at least one specific insecticide has been determined by the “Colby-formula”: The expected efficacy of a given combination of two compounds is calculated as follows (see Colby, S. R., “Calculating Synergistic and antagonistic Responses of Herbicide Combinations”, Weeds 15, pp. 20-22, 1967):
(§2) If • X is the efficacy expressed in % mortality of the untreated control for test compound A at a concentration of m ppm respectively m g/ha, • Y is the efficacy expressed in % mortality of the untreated control for test compound B at a concentration of n ppm respectively n g/ha, • E is the efficacy expressed in % mortality of the untreated control using the mixture of A and B at m and n ppm respectively m and n g/ha, then is E=X+Y−(X×Y/100)
(§3) If the observed insecticidal efficacy of the combination is higher than the one calculated as “E”, then the combination of the two compounds is more than additive, i.e., there is a synergistic effect.
(§4) To produce a suitable preparation of active compound, 1 part by weight of active compound is mixed with the stated amount of solvent and emulsifier, and the concentrate is diluted with emulsifier-containing water to the desired concentration. To produce a suitable preparation of a spore suspension the spores are diluted with emulsifier-containing water to the desired concentration.
Chinese cabbage (Brassica pekinensis) leaf-disks infected with all instars of the green peach aphid (Myzus persicae), are sprayed with a preparation of the active ingredient of the desired concentration.
After the specified period of time, mortality in % is determined. 100% means all aphids have been killed; 0% means none of the aphids have been killed. The mortality values determined thus are recalculated using the Colby-formula (see above).

[2] = tested on: Phaedon cochleariae; assay: Phaedon cochleariae spray test, Chinese cabbage leaf-disks; settings: mortality after 6 d
Protocol: as §1, §2, §3, §4
Chinese cabbage (Brassica pekinensis) leaf-disks are sprayed with a preparation of the active ingredient of the desired concentration. Once dry, the leaf disks are infested with mustard beetle larvae (Phaedon cochleariae).
After the specified period of time, mortality in % is determined. 100% means all beetle larvae have been killed and 0% means none of the beetle larvae have been killed. The mortality values determined thus are recalculated using the Colby-formula (see above).

[3] = tested on: Nilaparvata lugens; assay: Nilaparvata lugens spray test (NILALU), rice plants; settings: 1 ppm; mortality after 3 d
Protocol: as §1, §2, §3
To produce a suitable preparation of active compound, 1 part by weight of active compound is mixed with the stated amount of solvent and emulsifier, and the concentrate is diluted with emulsifier-containing water to the desired concentration. […]
After the specified period of time, mortality in % is determined. […]

[4] = tested on: Spodoptera frugiperda; assay: Spodoptera frugiperda spray test, cotton leaves; settings: 0.8 ppm; mortality after 1 d
Protocol: as §1, §2
(§5) If the observed insecticidal efficacy of the combination is higher than the one calculated as “E”, then the combination of the two compounds is more than additive, i.e., there is a synergistic effect. […]
(§6) After the specified period of time, mortality in % is determined. […] The mortality values determined thus are recalculated using the Colby-formula (see above).

[5] = tested on: Tetranychus urticae; assay: Tetranychus urticae spray test, OP-resistant, French beans; settings: 0.032 g ai/ha; mortality after 2 d
Protocol: as §1, §2, §5, §6

Compound: N#Cc1nn(-c2c(Cl)cc(C(F)(F)F)cc2Cl)c(N)c1[S+]([O-])C(F)(F)F (stereo not drawn) [Fipronil (I95), Fipronil]
- Efficacy in % after 6d ([1]; 4 g/ha): 0%
- Efficacy in % after 6d ([1]; 100 g/ha): 0%
- Efficacy in % after 6d ([2]; 0.25 g ai/ha): 33%
- Efficacy in % after 3d [3]: 0%

Compound: CNC(=O)Oc1cc(C)c(SC)c(C)c1 [Methiocarb (I15), Methiocarb]
- Efficacy in % after 6d ([1]; 500 g/ha): 0%
- Efficacy in % after 6d ([2]; 20 g ai/ha): 0%

Compound: CS/C(C)=N\OC(=O)N(C)SN(C)C(=O)O/N=C(\C)SC [Thiodicarb (I21), Thiodicarb]
- Efficacy in % after 1d [4]: 50%

Compound: Abamectin [Abamectin (I152)]
- Efficacy in % after 2d [5]: 0%
- Efficacy in % after 6d ([2]; 0.8 g ai/ha): 0%
